The IC50 is the concentration that inhibits the measured activity by half. A word on the Ki: it is the equilibrium dissociation constant of an inhibitor or competing ligand from its target. A higher Ki goes with a looser hold on the target. As a reminder, the inhibition is the percentage by which the read-out fell short of the control. A low value points to a weak effect.

Results on 17 compounds are retold here after ChEMBL document CHEMBL3407465, “Interaction of human organic anion transporter polypeptides 1B1 and 1B3 with antineoplastic compounds” (Eur J Med Chem, 2015).

The target of series [1] is T1, Solute carrier organic anion transporter family member 1B3 (Homo sapiens, UniProt Q9NPD5).
T1 sequence (Q9NPD5 whole entry): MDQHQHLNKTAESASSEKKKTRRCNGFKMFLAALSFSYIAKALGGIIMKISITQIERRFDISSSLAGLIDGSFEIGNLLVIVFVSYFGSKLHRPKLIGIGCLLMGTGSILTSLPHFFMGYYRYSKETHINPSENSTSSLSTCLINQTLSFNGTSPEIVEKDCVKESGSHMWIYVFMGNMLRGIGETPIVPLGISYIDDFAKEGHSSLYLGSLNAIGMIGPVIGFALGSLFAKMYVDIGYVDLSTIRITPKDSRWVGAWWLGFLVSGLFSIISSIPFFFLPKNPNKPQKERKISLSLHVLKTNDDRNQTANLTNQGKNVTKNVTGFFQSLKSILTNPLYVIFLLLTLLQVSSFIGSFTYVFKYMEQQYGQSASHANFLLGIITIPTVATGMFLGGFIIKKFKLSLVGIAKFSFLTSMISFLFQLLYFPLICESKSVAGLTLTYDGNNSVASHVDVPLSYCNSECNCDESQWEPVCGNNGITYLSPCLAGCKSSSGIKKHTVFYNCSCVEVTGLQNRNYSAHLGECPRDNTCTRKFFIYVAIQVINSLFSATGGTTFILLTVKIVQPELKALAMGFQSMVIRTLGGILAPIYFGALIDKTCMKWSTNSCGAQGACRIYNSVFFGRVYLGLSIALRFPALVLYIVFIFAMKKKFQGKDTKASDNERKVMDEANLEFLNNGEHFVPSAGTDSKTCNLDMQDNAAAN
The experiment in a line: Inhibition of human OATP1B3-mediated [3H]CCK-8 at 100 uM after 5 mins relative to control. It counts as ADME.

Series [2] deals with T1, Solute carrier organic anion transporter family member 1B3. The experiment in a line: Inhibition of human OATP1B3-mediated [3H]CCK-8 after 5 mins by Dixon plot method. Type of series: ADME.
For series [3], the target named is T2, Solute carrier organic anion transporter family member 1B1 (Homo sapiens, UniProt Q9Y6L6).
T2 sequence (Q9Y6L6 whole entry): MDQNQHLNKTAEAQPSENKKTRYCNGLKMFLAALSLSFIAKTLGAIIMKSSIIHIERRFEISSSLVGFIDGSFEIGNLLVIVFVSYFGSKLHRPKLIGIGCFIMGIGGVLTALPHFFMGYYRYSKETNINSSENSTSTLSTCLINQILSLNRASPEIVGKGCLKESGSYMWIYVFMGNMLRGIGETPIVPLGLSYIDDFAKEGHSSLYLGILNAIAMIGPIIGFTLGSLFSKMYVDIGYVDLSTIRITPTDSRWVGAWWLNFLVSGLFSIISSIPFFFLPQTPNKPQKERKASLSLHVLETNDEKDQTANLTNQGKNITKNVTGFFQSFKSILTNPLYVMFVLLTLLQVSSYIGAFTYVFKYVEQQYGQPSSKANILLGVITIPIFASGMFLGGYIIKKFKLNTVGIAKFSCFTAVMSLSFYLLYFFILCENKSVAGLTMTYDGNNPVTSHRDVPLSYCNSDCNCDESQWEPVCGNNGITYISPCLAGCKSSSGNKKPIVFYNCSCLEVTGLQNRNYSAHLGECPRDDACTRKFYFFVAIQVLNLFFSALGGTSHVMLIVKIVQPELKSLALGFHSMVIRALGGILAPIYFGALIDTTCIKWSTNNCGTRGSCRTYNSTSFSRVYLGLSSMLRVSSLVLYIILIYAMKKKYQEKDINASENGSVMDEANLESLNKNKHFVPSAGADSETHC
The series is described as follows: Stimulation of human OATP1B1-mediated [3H]estrone 3-sulfate at 100 uM after 5 mins relative to control. It counts as ADME.

The target in series [4] is T1, Solute carrier organic anion transporter family member 1B3. The experiment in a line: Stimulation of human OATP1B3-mediated [3H]CCK-8 at 100 uM after 5 mins relative to control. It counts as ADME.
Series [5] has as its target T2, Solute carrier organic anion transporter family member 1B1. The series is described as follows: Inhibition of human OATP1B1-mediated [3H]estrone 3-sulfate at 100 uM after 5 mins relative to control. It counts as ADME.
In series [6] the target is T3, OATP1B3 (Homo sapiens, UniProt Q9NPD5).
T3 sequence (Q9NPD5 whole entry): T1 sequence (Q9NPD5 whole entry)
The experiment in a line: Inhibition of OATP1B3 (unknown origin)-mediated sodium fluorescein expressed in CHO cells at 10 uM. Conditions: CHO cells expressing OATP1B3, probe sodium fluorescein. It counts as ADME, cell-based.

In series [7] the target is T2, Solute carrier organic anion transporter family member 1B1. The experiment in a line: Inhibition of human OATP1B1-mediated [3H]estrone 3-sulfate at after 5 mins by Dixon plot method. It counts as ADME.

Regarding `Cn1c(CCCC(=O)O)nc2cc(N(CCCl)CCCl)ccc21` [BENDAMUSTINE], the “inhibition (INH)” value in series [1] came out at 48.8%.

In series [2], `O=C(O)CCCc1ccc(N(CCCl)CCCl)cc1` [CHLORAMBUCIL] showed an IC50 of 80.7 µM and a Ki of 37.4 µM. In addition, in series [1], the “inhibition (INH)” value is on record as 66%. Further, the Activity in series [3] is 18.8%.

Take `Nc1nc(Cl)nc2c1ncn2[C@H]1C[C@H](O)[C@@H](CO)O1` [CLADRIBINE]: the Activity was 15.9% in series [3] and 10% in series [4].

`O=P1(N(CCCl)CCCl)NCCCO1` (centres undefined) [CYCLOPHOSPHAMIDE ANHYDROUS]: the results for the Activity in series [3] and in series [4] were 5.6% and 8.7%, respectively.

Take `Nc1ccn([C@@H]2O[C@H](CO)[C@@H](O)[C@@H]2O)c(=O)n1` [CYTARABINE]: the Activity in series [4] came out at 17.7%.

`COc1cccc2c1C(=O)c1c(O)c3c(c(O)c1C2=O)C[C@@](O)(C(=O)CO)C[C@@H]3O[C@H]1C[C@H](N)[C@H](O)[C@H](C)O1` [DOXORUBICIN]: the “inhibition (INH)” value in series [1] amounted to 53.6%; in series [5], 12%.

Regarding `Nc1nc(F)nc2c1ncn2[C@@H]1O[C@H](CO)[C@@H](O)[C@@H]1O` [FLUDARABINE], the Activity in series [4] was found to be 12%.

In series [4], `Nc1ccn([C@@H]2O[C@H](CO)[C@@H](O)C2(F)F)c(=O)n1` [GEMCITABINE] gave an Activity of 11.1%.

`O=P1(NCCCl)OCCCN1CCCl` (centres undefined) [IFOSFAMIDE] displayed an Activity in series [3] of 7.4%.

As to `CCc1c2c(nc3ccc(OC(=O)N4CCC(N5CCCCC5)CC4)cc13)-c1cc3c(c(=O)n1C2)COC(=O)[C@]3(O)CC` [IRINOTECAN], in series [1], the “inhibition (INH)” value stood at 34.3%. The same compound showed an Activity in series [3] of 93.3%.

In turn, `CN(Cc1cnc2nc(N)nc(N)c2n1)c1ccc(C(=O)N[C@@H](CCC(=O)O)C(=O)O)cc1` [METHOTREXATE] gave an Activity in series [4] of 12%.

In the case of `O=C1c2c(O)ccc(O)c2C(=O)c2c(NCCNCCO)ccc(NCCNCCO)c21` [MITOXANTRONE], in series [2], the IC50 was determined as 3.39 µM and the Ki worked out at 3.1 µM. Moreover, in series [1], the “inhibition (INH)” value worked out at 84.4%. For the same compound, in series [5], the “inhibition (INH)” value is 18.9%.

In series [2], `CC(=O)O[C@H]1C(=O)[C@@]2(C)[C@H]([C@H](OC(=O)c3ccccc3)[C@]3(O)C[C@H](OC(=O)[C@H](O)[C@@H](NC(=O)c4ccccc4)c4ccccc4)C(C)=C1C3(C)C)[C@]1(OC(C)=O)CO[C@@H]1C[C@@H]2O` [PACLITAXEL] returned an IC50 of 0.26 µM and a Ki of 1.8 µM. For the same compound, the “inhibition (INH)” value in series [1] came out at 94.4%. In series [6], 10 µM produced 52.9% inhibition.

Consider `C[C@]12C=CC(=O)C=C1CC[C@@H]1[C@@H]2C(=O)C[C@@]2(C)[C@H]1CC[C@]2(O)C(=O)CO` [PREDNISONE], for which the figures for the “inhibition (INH)” value in series [1] and in series [5] were 12.5% and 9.8%, respectively.

For `S=P(N1CC1)(N1CC1)N1CC1` [THIOTEPA], in series [3], the Activity was determined as 11.9%.

Take `CC[C@]1(O)C[C@@H]2CN(CCc3c([nH]c4ccccc34)[C@@](C(=O)OC)(c3cc4c(cc3OC)N(C)[C@H]3[C@@](O)(C(=O)OC)[C@H](OC(C)=O)[C@]5(CC)C=CCN6CC[C@]43[C@@H]65)C2)C1` [VINBLASTINE]: the IC50 turned out to be 43.5 µM in series [2] and 46.8 µM in series [7]. In addition, the Ki in series [2] amounted to 18.6 µM; in series [7], 10.2 µM. Besides, the entries for the “inhibition (INH)” value in series [1] and in series [5] were 81.5% and 64.1%, respectively.

Turning to `CC[C@]1(O)C[C@H]2CN(CCc3c([nH]c4ccccc34)[C@@](C(=O)OC)(c3cc4c(cc3OC)N(C=O)[C@H]3[C@@](O)(C(=O)OC)[C@H](OC(C)=O)[C@]5(CC)C=CCN6CC[C@]43[C@@H]65)C2)C1` [VINCRISTINE], in series [2], 36.8 µM corresponded to half-maximal inhibition (IC50) and the Ki is 17.6 µM. Also, in series [1], the “inhibition (INH)” value came out at 65.1%. The “inhibition (INH)” value in series [5] turned out to be 28.1%.
